Assay results as given in US9790228B2, “Heterocyclic kinase inhibitors” (Intellikine LLC, priority 2008, dated 2017).
pEC50, pIC50: −log10 of the molar value. Where two headings read alike, the source gives them in different places.

How the values were obtained:
p110β/p85α = p110β/p85α (Homo sapiens, UniProt P42338); assay: PI3K β inhibition assay (TLC lipid kinase or HTRF); format: biochemical; details: read-out: PI3K β IC50
Procedure: (§1) Class I PI3-Ks can be either purchased (p110α/p85α, p110β/p85α, p110δ/p85α from Upstate, and p110γ from Sigma) or expressed as previously described (Knight et al., 2004). IC50 values are measured using either a standard TLC assay for lipid kinase activity (described below) or a high-throughput membrane capture assay. Kinase reactions are performed by preparing a reaction mixture containing kinase, inhibitor (2% DMSO final concentration), buffer (25 mM HEPES, pH 7.4, 10 mM MgCl2), and freshly sonicated phosphatidylinositol (100 μg/ml). Reactions are initiated by the addition of ATP containing 10 μCi of γ-32P-ATP to a final concentration 10 or 100 μM and allowed to proceed for 5 minutes at room temperature. For TLC analysis, reactions are then terminated by the addition of […] 1N HCl followed by 160 μl CHCl3:MeOH (1:1). The biphasic mixture is vortexed, briefly centrifuged, and the organic phase is transferred to a new tube using a gel loading pipette tip precoated with CHCl3. This extract is spotted on TLC plates and developed for 3-4 hours in a 65:35 solution of n-propanol:1M acetic acid. The TLC plates are then dried, exposed to a phosphorimager screen (Storm, Amersham), and quantitated. For each compound, kinase activity is measured at 10-12 inhibitor concentrations representing two-fold dilutions from the highest concentration tested (typically, 200 μM).
(§2) Other commercial kits or systems for assaying PI3-K activities are available. The commercially available kits or systems can be used to screen for inhibitors and/or agonists of PI3-Ks including but not limited to PI 3-Kinase α, β, δ, and γ. Anr exemplary system is PI3-Kinase (human) HTRF™ Assay from Upstate. […] Briefly, the assay is a time resolved FRET assay that indirectly measures PIP3 product formed by the activity of a PI3-K. The kinase reaction is performed in a microtitre plate (e.g., a 384 well microtitre plate). The total reaction volume is approximately 20 ul per well. In the first step, each well receives 2 ul of test compound in 20% dimethylsulphoxide resulting in a 2% DMSO final concentration. Next, approximately 14.5 ul of a kinase/PIP2 mixture (diluted in 1× reaction buffer) is added per well for a final concentration of 0.25-0.3 ug/ml kinase and 10 uM PIP2. The plate is sealed and incubated for 15 minutes at room temperature. To start the reaction, 3.5 ul of ATP (diluted in 1× reaction buffer) is added per well for a final concentration of 10 uM ATP. The plate is sealed and incubated for 1 hour at room temperature. The reaction is stopped by adding 5 ul of Stop Solution per well and then 5 ul of Detection Mix is added per well. The plate is sealed, incubated for 1 hour at room temperature, and then read on an appropriate plate reader. Data is analyzed and IC50s are generated using GraphPad Prism 5.

p110δ/p85α = p110δ/p85α (Homo sapiens (Human), UniProt O00329); assay: PI3K δ inhibition assay (TLC lipid kinase or HTRF); format: biochemical
Procedure: as §1, §2

p110α/p85α = p110α/p85α (Homo sapiens (Human), UniProt P42336); assay: PI3K α inhibition assay (TLC lipid kinase or HTRF); format: biochemical
Procedure: as §1, §2

p110γ = p110γ (Homo sapiens (Human), UniProt P48736); assay: PI3K γ inhibition assay (TLC lipid kinase or HTRF); format: biochemical
Procedure: as §1, §2

Balb/c splenic B cells = assay: B cell activation and proliferation assay (Alamar Blue); format: cell-based, mouse
Procedure: The ability of one or more subject compounds to inhibit B cell activation and proliferation is determined according to standard procedures known in the art. For example, an in vitro cellular proliferation assay is established that measures the metabolic activity of live cells. The assay is performed in a 96 well microtiter plate using Alamar Blue reduction. Balb/c splenic B cells are purified over a Ficoll-Paque™ PLUS gradient followed by magnetic cell separation using a MACS B cell Isolation Kit (Miletenyi). Cells are plated in 90 ul at 50,000 cells/well in B Cell Media (RPMI+10% FBS+Penn/Strep+50 uM bME+5 mM HEPES). A compound disclosed herein is diluted in B Cell Media and added in a 10 ul volume. Plates are incubated for 30 min at 37 C and 5% CO2 (0.2% DMSO final concentration). A 50 ul B cell stimulation cocktail is then added containing either 10 ug/ml LPS or 5 ug/ml F(ab′)2 Donkey anti-mouse IgM plus 2 ng/ml recombinant mouse IL4 in B Cell Media. Plates are incubated for 72 hours at 37° C. and 5% CO2. A volume of 15 uL of Alamar Blue reagent is added to each well and plates are incubated for 5 hours at 37 C and 5% CO2. Alamar Blue fluoresce is read at 560Ex/590Em, and IC50 or EC50 values are calculated using GraphPad Prism 5.

Chain of p110β/p85α (P42338 whole entry, looked up): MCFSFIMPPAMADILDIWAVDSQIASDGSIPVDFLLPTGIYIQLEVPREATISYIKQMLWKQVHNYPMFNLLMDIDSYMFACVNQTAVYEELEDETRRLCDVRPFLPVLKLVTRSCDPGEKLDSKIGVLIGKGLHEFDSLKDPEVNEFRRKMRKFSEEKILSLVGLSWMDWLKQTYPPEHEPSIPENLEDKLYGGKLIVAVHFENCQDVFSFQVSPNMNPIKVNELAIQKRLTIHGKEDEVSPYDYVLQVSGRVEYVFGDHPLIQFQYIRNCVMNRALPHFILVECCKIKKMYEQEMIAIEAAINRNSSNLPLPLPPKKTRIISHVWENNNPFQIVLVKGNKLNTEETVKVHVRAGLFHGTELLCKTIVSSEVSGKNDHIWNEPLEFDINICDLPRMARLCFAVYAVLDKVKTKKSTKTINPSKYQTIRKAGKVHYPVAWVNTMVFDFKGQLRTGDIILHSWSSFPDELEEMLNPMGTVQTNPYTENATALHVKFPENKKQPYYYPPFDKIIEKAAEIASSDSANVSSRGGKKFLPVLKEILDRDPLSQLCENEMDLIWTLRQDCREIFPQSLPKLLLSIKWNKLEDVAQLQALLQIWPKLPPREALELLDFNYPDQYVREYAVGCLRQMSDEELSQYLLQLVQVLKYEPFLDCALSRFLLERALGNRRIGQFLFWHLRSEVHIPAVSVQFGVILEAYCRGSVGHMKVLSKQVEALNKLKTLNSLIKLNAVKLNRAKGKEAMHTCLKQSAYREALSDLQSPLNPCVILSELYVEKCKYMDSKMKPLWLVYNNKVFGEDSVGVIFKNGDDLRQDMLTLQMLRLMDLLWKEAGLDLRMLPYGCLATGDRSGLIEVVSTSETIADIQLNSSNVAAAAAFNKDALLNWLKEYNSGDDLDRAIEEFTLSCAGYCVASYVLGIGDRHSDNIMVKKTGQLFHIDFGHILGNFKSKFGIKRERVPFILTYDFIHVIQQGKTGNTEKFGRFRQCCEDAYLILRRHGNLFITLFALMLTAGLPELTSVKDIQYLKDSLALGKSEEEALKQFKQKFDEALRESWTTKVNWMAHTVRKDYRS
Chain of p110γ (P48736 whole entry): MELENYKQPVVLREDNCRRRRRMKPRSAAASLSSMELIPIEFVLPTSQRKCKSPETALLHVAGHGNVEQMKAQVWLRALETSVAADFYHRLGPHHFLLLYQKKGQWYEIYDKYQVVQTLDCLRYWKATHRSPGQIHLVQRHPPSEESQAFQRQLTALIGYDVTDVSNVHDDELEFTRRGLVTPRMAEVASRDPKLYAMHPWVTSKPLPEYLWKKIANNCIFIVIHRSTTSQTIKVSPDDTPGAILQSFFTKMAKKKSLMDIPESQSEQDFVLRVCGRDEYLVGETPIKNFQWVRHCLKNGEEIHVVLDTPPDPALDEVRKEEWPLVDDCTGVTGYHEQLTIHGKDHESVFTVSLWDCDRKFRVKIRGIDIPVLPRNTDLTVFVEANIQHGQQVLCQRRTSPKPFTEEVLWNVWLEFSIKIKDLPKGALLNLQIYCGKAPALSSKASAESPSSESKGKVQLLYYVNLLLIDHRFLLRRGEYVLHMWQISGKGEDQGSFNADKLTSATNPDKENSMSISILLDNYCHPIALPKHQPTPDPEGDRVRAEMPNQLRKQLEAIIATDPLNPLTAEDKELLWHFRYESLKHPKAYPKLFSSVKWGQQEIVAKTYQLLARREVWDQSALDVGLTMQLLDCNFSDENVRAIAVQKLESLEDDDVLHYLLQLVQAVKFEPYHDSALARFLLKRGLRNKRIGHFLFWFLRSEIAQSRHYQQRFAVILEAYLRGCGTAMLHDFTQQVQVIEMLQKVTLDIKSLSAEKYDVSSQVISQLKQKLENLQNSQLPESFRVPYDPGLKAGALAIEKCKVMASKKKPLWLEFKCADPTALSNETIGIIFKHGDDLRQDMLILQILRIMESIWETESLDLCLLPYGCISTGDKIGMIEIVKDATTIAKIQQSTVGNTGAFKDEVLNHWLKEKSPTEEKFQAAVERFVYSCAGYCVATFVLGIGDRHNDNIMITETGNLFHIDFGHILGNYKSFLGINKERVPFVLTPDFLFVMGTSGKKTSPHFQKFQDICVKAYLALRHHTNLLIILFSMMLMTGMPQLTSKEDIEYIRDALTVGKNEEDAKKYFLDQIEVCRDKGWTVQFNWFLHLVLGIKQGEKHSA
Chain of p110α/p85α (P42336 whole entry): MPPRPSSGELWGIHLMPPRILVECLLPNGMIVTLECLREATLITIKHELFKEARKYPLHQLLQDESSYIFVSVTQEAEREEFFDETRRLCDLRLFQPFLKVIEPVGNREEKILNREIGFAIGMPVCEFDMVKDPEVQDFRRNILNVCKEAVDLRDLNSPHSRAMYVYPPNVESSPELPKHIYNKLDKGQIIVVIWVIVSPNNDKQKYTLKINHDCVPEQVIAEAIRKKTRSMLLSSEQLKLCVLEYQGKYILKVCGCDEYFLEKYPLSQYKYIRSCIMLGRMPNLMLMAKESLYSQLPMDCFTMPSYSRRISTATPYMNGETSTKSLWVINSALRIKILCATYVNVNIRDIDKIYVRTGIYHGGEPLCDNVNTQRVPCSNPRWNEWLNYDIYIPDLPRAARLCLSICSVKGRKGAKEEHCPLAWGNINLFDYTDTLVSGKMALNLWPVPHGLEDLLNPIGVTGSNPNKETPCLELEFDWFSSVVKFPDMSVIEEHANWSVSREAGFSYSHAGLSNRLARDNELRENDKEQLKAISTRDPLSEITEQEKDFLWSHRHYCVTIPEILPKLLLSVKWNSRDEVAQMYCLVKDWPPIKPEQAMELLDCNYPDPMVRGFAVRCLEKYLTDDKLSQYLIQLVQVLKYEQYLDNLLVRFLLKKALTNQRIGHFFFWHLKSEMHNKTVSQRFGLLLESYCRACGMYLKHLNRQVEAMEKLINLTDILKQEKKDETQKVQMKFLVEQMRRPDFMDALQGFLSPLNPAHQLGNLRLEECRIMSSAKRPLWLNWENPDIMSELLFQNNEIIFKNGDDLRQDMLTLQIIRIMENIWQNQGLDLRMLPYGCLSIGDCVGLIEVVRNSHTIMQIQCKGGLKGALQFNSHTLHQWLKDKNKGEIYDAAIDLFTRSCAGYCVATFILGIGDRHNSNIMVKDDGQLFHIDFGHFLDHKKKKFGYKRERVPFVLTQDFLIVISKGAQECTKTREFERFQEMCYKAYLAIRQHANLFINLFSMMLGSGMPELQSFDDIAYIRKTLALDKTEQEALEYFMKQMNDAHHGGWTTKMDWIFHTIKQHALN
Chain of p110α/p85α (P27986 whole entry partner): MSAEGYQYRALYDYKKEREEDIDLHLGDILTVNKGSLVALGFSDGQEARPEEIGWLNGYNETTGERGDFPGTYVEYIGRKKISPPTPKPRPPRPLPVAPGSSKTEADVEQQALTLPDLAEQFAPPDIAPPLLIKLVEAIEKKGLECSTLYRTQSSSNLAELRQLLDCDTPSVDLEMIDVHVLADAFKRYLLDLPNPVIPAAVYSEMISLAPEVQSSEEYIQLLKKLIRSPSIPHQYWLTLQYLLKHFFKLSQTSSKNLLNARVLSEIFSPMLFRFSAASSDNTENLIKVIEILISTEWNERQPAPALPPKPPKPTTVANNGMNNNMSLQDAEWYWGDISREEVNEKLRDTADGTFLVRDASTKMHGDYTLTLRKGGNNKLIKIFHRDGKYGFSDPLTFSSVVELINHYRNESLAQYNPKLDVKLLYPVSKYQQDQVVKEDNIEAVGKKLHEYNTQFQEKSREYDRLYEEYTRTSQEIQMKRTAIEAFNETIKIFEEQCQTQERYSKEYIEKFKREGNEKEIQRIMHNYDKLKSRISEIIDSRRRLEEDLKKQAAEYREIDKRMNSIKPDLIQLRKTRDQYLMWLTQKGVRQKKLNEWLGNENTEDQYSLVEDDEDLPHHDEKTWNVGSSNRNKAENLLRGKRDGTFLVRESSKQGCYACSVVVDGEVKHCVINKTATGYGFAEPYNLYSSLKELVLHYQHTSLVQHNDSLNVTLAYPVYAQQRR
Chain of p110δ/p85α (O00329 whole entry): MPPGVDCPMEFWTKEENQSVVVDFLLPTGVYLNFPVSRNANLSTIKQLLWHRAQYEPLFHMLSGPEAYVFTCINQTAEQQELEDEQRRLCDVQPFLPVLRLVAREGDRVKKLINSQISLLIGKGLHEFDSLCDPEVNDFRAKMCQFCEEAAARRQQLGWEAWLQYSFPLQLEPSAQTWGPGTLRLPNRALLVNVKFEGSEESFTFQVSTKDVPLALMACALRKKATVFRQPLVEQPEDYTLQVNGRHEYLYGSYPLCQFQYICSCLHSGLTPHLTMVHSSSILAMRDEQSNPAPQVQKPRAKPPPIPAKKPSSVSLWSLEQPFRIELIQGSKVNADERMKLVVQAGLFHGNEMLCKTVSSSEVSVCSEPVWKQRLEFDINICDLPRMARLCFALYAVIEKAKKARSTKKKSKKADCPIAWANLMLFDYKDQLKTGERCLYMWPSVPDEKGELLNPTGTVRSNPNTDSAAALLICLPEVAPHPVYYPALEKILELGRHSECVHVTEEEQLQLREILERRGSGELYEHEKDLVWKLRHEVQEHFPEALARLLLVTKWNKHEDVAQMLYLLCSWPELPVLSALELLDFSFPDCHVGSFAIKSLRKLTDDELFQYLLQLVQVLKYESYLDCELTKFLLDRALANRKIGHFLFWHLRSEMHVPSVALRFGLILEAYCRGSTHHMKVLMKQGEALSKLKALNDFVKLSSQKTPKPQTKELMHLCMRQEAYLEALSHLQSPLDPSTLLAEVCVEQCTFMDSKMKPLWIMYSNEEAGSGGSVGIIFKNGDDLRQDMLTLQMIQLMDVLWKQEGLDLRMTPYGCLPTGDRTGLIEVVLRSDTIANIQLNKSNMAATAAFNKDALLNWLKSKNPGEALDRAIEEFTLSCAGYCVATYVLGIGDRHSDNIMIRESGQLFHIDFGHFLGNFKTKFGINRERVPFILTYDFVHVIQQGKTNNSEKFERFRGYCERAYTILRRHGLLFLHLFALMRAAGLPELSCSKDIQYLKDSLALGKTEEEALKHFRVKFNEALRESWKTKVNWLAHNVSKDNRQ
Chain of p110δ/p85α (P27986 whole entry partner): as the sequence (P27986 whole entry partner) above

Row | Compound | pIC50 (p110β/p85α) | pIC50 (p110δ/p85α) | pIC50 (p110α/p85α) | pIC50 (p110γ) | pEC50 (Balb/c splenic B cells; Mus musculus, B-cell) | pEC50 (Balb/c splenic B cells)
1 | Nc1ncnc2c1c(I)nn2Cc1cc2ccccc2nc1N1CCCC1 [Compound 1] | < 6.00 | > 7.00 | < 6.00 | > 7.00 | 6.00 to 7.00 | –
2 | CC(=O)Nc1nc2ccc(-c3nn(Cc4cc5ccccc5nc4N(C)C)c4ncnc(N)c34)cc2s1 [Compound 130] | > 7.00 | > 7.00 | > 7.00 | > 7.00 | > 7.00 | –
3 | Nc1ncnc2c1c(-c1cc(O)cc(F)c1)nn2Cc1nc2ccccc2nc1N1CCCC1 [Compound 104] | < 6.00 | > 7.00 | < 6.00 | 6.00 to 7.00 | > 7.00 | –
4 | CC(C)N(C)c1nc2ccccc2cc1Cn1nc(-c2ccc3nc(N)sc3c2)c2c(N)ncnc21 [Compound 154] | – | > 7.00 | > 7.00 | 6.00 to 7.00 | > 7.00 | –
5 | Nc1nc2cc(-c3nn(Cc4cc5ccccc5nc4-c4ccccc4F)c4ncnc(N)c34)ccc2o1 [Compound 137] | < 6.00 | > 7.00 | < 6.00 | > 7.00 | 6.00 to 7.00 | –
6 | CC(=O)Nc1nc2ccc(-c3nn(Cc4cc5ccccc5nc4N4CCN(C)CC4)c4ncnc(N)c34)cc2s1 [Compound 70] | > 7.00 | > 7.00 | 6.00 to 7.00 | 6.00 to 7.00 | > 7.00 | –
7 | Nc1ncnc2c1c(/C=C1/SC(=O)NC1=O)nn2Cc1cc2ccccc2nc1-c1ccccc1F [Compound 192] | < 6.00 | > 7.00 | < 6.00 | > 7.00 | 6.00 to 7.00 | –
8 | CN1CCN(CCc2nc3ccccc3cc2Cn2nc(-c3cc(O)cc(F)c3)c3c(N)ncnc32)CC1 [Compound 168] | 6.00 to 7.00 | > 7.00 | < 6.00 | < 6.00 | > 7.00 | –
9 | Nc1ncnc2ccc(-c3nn(Cc4cc5ccccc5nc4N4CCOCC4)c4ncnc(N)c34)cc12 [Compound 142] | < 6.00 | > 7.00 | 6.00 to 7.00 | > 7.00 | > 7.00 | –
10 | CC(C)N(C)c1nc2ccccc2cc1Cn1nc(-c2cccc(O)c2)c2c(N)ncnc21 [Compound 150] | < 6.00 | > 7.00 | – | > 7.00 | > 7.00 | –
11 | CC(C)Nc1nc2ccccc2cc1Cn1nc(-c2cc(O)cc(F)c2)c2c(N)ncnc21 [Compound 25] | – | 6.00 to 7.00 | – | < 6.00 | < 6.00 | –
12 | Nc1ncnc2c1c(-c1ccc3cc[nH]c3c1)nn2Cc1cc2ccccc2nc1N1CCCC1 [Compound 147] | – | > 7.00 | 6.00 to 7.00 | > 7.00 | 6.00 to 7.00 | –
13 | Nc1ncnc2c1c(-c1cccc(O)c1)nn2Cc1cc2ccccc2nc1N1CCCC1 [Compound 47] | – | > 7.00 | – | > 7.00 | > 7.00 | –
14 | CN1CCN(c2ncccc2Cn2nc(-c3cc(O)cc(F)c3)c3c(N)ncnc32)CC1 [Compound 200] | – | > 7.00 | < 6.00 | < 6.00 | 6.00 to 7.00 | –
15 | Cc1cccc2cc(Cn3nc(-c4cc(O)cc(F)c4)c4c(N)ncnc43)c(N3CCCC3)nc12 [Compound 9] | < 6.00 | > 7.00 | < 6.00 | – | > 7.00 | –
16 | CC(=O)Nc1nc2ccc(-c3nn(Cc4cc5ccccc5nc4N4CCOCC4)c4ncnc(N)c34)cc2s1 [Compound 128] | – | > 7.00 | > 7.00 | > 7.00 | > 7.00 | –
17 | Nc1nc2ccc(-c3nn(Cc4cc5ccccc5nc4N4CCCC4)c4ncnc(N)c34)cc2s1 [Compound 196] | – | > 7.00 | 6.00 to 7.00 | > 7.00 | – | 6.00 to 7.00
